One assay has as its system Aspergillus flavus. As to the kind of experiment: Antifungal activity against Aspergillus flavus NRRL-980 after 72 hrs by broth microdilution method. The assay is classed as functional. Conditions: NRRL-980, 72 h.
A further assay has as its system Pichia kudriavzevii. As to the kind of experiment: Antifungal activity against Candida krusei NRLL Y-7179 after 48 hrs by broth microdilution method. Conditions: NRLL Y-7179, 48 h. The assay is classed as functional. A general note: Broth dilution looks for growth in wells or tubes with falling amounts of substance.
The test system of the next assay is A549. As to the kind of experiment: Cytotoxicity against human A549 cells after 24 hrs by XTT assay. The assay is classed as functional, cell-based. Conditions: A549, 24 h. (Formazan colour is commonly taken as a measure of viable cells.)
Assay [1] in a line: Cytotoxicity against mouse NIH/3T3 cells after 24 hrs by XTT assay. Type of assay: cell-based. Conditions: NIH3T3, 24 h.
Another assay relates to Fusarium solani. As to the kind of experiment: Antifungal activity against Fusarium solani NRRL-13414 after 72 hrs by broth microdilution method. Conditions: NRRL-13414, 72 h. The assay is classed as functional.
A further assay relates to Candida parapsilosis. As to the kind of experiment: Antifungal activity against Candida parapsilosis NRLL Y-12696 after 48 hrs by broth microdilution method. The assay is classed as functional. Conditions: Lodderomyces parapsilosis, NRLL Y-12696, 48 h.
The test system of a further assay is Nakaseomyces glabratus. As to the kind of experiment: Antifungal activity against clinical isolate Candida glabrata after 48 hrs by broth microdilution method. Type of assay: functional.
A further assay has as its system Candida albicans. As to the kind of experiment: Antifungal activity against Candida albicans ATCC-90028 after 48 hrs by broth microdilution method. Type of assay: functional. Conditions: ATCC-90028, 48 h.
Another assay deals with [Candida] zeylanoides. As to the kind of experiment: Antifungal activity against Candida zeylanoides NRLL Y-1774 after 48 hrs by broth microdilution method. Type of assay: functional. Conditions: Dujonia zeylanoides, NRLL Y-1774, 48 h.
A further assay has as its system Aspergillus parasiticus. As to the kind of experiment: Antifungal activity against Aspergillus parasiticus NRRL 465 after 72 hrs by broth microdilution method. Type of assay: functional. Conditions: NRRL 465, 72 h.
A further assay has as its system Aspergillus niger. As to the kind of experiment: Antifungal activity against Aspergillus niger ATCC-1094 after 72 hrs by broth microdilution method. Type of assay: functional. Conditions: ATCC-1094, 72 h.
The subject of the next assay is Candida tropicalis. As to the kind of experiment: Antifungal activity against Candida tropicalis NRLL Y-12968 after 48 hrs by broth microdilution method. Type of assay: functional. Conditions: NRLL Y-12968, 48 h.

≈ marks a conversion by molar mass, not a printed value. Some results are limits rather than exact numbers.

What is called MIC is the lowest concentration that inhibits growth of the organism. For orientation: IC50 means the midpoint of a concentration-inhibition curve. A higher IC50 goes with weaker potency in that assay.

Consider `Fc1ccc(Oc2ccc(/C=N/NC(=S)Nc3cccc4ccccc34)cc2)cc1`, for which the MIC in the assay on Aspergillus flavus, against Pichia kudriavzevii, in the assay with Fusarium solani, against Candida parapsilosis, in the assay on Nakaseomyces glabratus and in the assay on Candida albicans was 250 µg/mL (≈ 602 µM) each time. Besides, the MIC (in assay [Candida] zeylanoides; against Aspergillus parasiticus; against Aspergillus niger; in the assay with Candida tropicalis) was 250 µg/mL (≈ 602 µM) throughout. Also, the IC50 was 62.5 µg/mL (≈ 150 µM) in the assay with A549 and above 500 µg/mL in [1].
With `Fc1cc(F)c(/C=N/NC(=S)Nc2cccc3ccccc23)c(F)c1`, the MIC in the assay with Aspergillus flavus, against Pichia kudriavzevii, in the assay with Fusarium solani, in the assay with Candida parapsilosis, in the assay on Nakaseomyces glabratus and against Candida albicans was 250 µg/mL (≈ 696 µM) each time. Further, the MIC (in [Candida] zeylanoides; against Aspergillus parasiticus; in the assay with Aspergillus niger; against Candida tropicalis) was 250 µg/mL (≈ 696 µM) throughout. The IC50 (with A549; in assay [1]) was above 500 µg/mL throughout.
For the molecule `Fc1cccc(Cl)c1/C=N/NC(=S)Nc1cccc2ccccc12`, the MIC in the assay on Aspergillus flavus, against Pichia kudriavzevii, with Fusarium solani, against Candida parapsilosis, with Nakaseomyces glabratus and against Candida albicans was 250 µg/mL (≈ 699 µM) each time. In addition, the MIC (in assay [Candida] zeylanoides; with Aspergillus parasiticus; in the assay with Aspergillus niger; in the assay with Candida tropicalis) was 250 µg/mL (≈ 699 µM) each time. Besides, the IC50 in the assay with A549 was 125 µg/mL (≈ 349 µM); in assay [1], above 500 µg/mL.
Take `Fc1cc(F)cc(/C=N/NC(=S)Nc2cccc3ccccc23)c1`: the minimum inhibitory concentration (MIC) in the assay with Aspergillus flavus, in the assay on Pichia kudriavzevii, against Fusarium solani, against Candida parapsilosis, in the assay with Nakaseomyces glabratus and with Candida albicans was 250 µg/mL (≈ 732 µM) each time. Moreover, the MIC (in assay [Candida] zeylanoides; against Aspergillus parasiticus; against Aspergillus niger; with Candida tropicalis) was 250 µg/mL (≈ 732 µM) in each case. In addition, the IC50 in the assay on A549 is 500 µg/mL (≈ 1460 µM); in [1], above 500 µg/mL.
For `Fc1ccc(/C=N/NC(=S)Nc2cccc3ccccc23)c(F)c1`, the MIC in the assay on Aspergillus flavus, in the assay with Pichia kudriavzevii, in the assay with Fusarium solani, against Candida parapsilosis, against Nakaseomyces glabratus and against Candida albicans was 250 µg/mL (≈ 732 µM) in each case. For the same molecule, the MIC (in assay [Candida] zeylanoides; against Aspergillus parasiticus; in the assay on Aspergillus niger; in the assay with Candida tropicalis) was 250 µg/mL (≈ 732 µM) in each case. Besides, the figures for the IC50 (with A549; in [1]) were 31.2 µg/mL (≈ 91.5 µM) and above 500 µg/mL, respectively.
As to `Fc1ccc(/C=N/NC(=S)Nc2cccc3ccccc23)cc1Cl`, the MIC against Aspergillus flavus, in the assay with Pichia kudriavzevii, against Fusarium solani, with Candida parapsilosis, in the assay on Nakaseomyces glabratus and against Candida albicans was 250 µg/mL (≈ 699 µM) throughout. In addition, the MIC (in [Candida] zeylanoides; in the assay with Aspergillus parasiticus; in the assay on Aspergillus niger; with Candida tropicalis) was 250 µg/mL (≈ 699 µM) throughout. The results for the IC50 (in the assay with A549; in assay [1]) were 51.3 µg/mL (≈ 143 µM) and 500 µg/mL (≈ 1400 µM), respectively.
For `Fc1cccc(F)c1/C=N/NC(=S)Nc1cccc2ccccc12`, the MIC with Aspergillus flavus, against Pichia kudriavzevii, against Fusarium solani, in the assay on Candida parapsilosis, in the assay on Nakaseomyces glabratus and against Candida albicans was 250 µg/mL (≈ 732 µM) in each case. The MIC (in assay [Candida] zeylanoides; against Aspergillus parasiticus; against Aspergillus niger; against Candida tropicalis) was 250 µg/mL (≈ 732 µM) each time. Also, the IC50 was 500 µg/mL (≈ 1460 µM) in the assay on A549 and 31.2 µg/mL (≈ 91.5 µM) in assay [1].
As for `CC(=O)N1CCN(c2ccc(OCC3COC(Cn4ccnc4)(c4ccc(Cl)cc4Cl)O3)cc2)CC1` (stereo unspecified) [KETOCONAZOLE], the MIC in the assay on Aspergillus flavus worked out at 15.6 µg/mL (≈ 29.4 µM); with Pichia kudriavzevii, 125 µg/mL (≈ 235 µM); in the assay on Fusarium solani it was 62.5 µg/mL (≈ 118 µM); in the assay with Candida parapsilosis, 15.6 µg/mL (≈ 29.4 µM); against Nakaseomyces glabratus, 62.5 µg/mL (≈ 118 µM); against Candida albicans it was 62.5 µg/mL (≈ 118 µM). Also, the minimum inhibitory concentration (MIC) in assay [Candida] zeylanoides came to 250 µg/mL (≈ 470 µM); in the assay on Aspergillus parasiticus it was 7.81 µg/mL (≈ 14.7 µM); against Aspergillus niger it was 31.2 µg/mL (≈ 58.8 µM); with Candida tropicalis, 125 µg/mL (≈ 235 µM).
As for `Fc1ccc(/C=N/NC(=S)Nc2cccc3ccccc23)cc1F`, the minimum inhibitory concentration (MIC) against Aspergillus flavus, against Pichia kudriavzevii, in the assay with Fusarium solani, against Candida parapsilosis, in the assay on Nakaseomyces glabratus and in the assay with Candida albicans was 250 µg/mL (≈ 732 µM) throughout. Further, the MIC (in assay [Candida] zeylanoides; in the assay with Aspergillus parasiticus; in the assay on Aspergillus niger; against Candida tropicalis) was 250 µg/mL (≈ 732 µM) each time. The IC50 with A549 was 125 µg/mL (≈ 366 µM); in assay [1] it was above 500 µg/mL.
